In patent publication US10040791B2, “Isoxazole derivative as mutant isocitrate dehydrogenase 1 inhibitor” (Daiichi Sankyo Company, Limited, priority 2014, dated 2018) one finds IC50 data, which are given here for 25 compounds.

SMILES strings stand for the structures. Like-named read-outs stand apart in the source and are kept apart here.

For assay [1], the system named is HT-1080 cells expressing IDH1R132C. The experiment in a line: 2-HG production inhibitory activity using HT1080 cell. As to conditions: Homo sapiens. It is filed as cell-based, human. On the procedure:
Then, 100 μL of growth medium B was added to each well, further 25 μL of a solution of each compound diluted to a predetermined concentration with growth medium B was added to each well, and the cells were incubated at 37° C. for 2 days under 5% CO2. […] Then, 150 μL of ultrapure water was further added to each well, and the mixture was stirred by pipetting and stored at −20° C.
The preserved solutions were thawed at room temperature.

In assay [2] the target is IDH1R132C (Homo sapiens (Human), UniProt O75874, R132C). Nature of the assay: Inhibitory activity against IDH1R132C enzyme (NADPH detection, WST-8). As to conditions: 10 nM, residual NADPH detected with WST-8, read-out: Test Example 1 IDH1 R132C IC50. It is filed as biochemical. As to the method:
After transformation of Rosetta 2 (DE3) E. coli, the expression of the protein was induced with IPTG.
While NADPH-derived fluorescence was occasionally monitored, the reaction was terminated by the addition of 5 μL of 0.5 M EDTA before consumption of NADPH. 5 μL of WST-8 reagent (Dojindo Laboratories, #CK04) was further added and mixed therewith. 15 minutes later, the absorbance at 450 nm was measured using a plate reader (PerkinElmer, Inc., EnVision). The observed absorbance value reflects the amount of residual NADPH. From the absorbance data, the enzyme inhibitory activity of each compound at each concentration was calculated and analyzed using medical statistical analysis software GraphPad Prism to calculate an IC50 value.

[3] abbreviates: HT-1080, 2-HG production, HT1080 cells, read-out: Test Example 3 IC50.

Chain of IDH1R132C (O75874 whole entry R132C): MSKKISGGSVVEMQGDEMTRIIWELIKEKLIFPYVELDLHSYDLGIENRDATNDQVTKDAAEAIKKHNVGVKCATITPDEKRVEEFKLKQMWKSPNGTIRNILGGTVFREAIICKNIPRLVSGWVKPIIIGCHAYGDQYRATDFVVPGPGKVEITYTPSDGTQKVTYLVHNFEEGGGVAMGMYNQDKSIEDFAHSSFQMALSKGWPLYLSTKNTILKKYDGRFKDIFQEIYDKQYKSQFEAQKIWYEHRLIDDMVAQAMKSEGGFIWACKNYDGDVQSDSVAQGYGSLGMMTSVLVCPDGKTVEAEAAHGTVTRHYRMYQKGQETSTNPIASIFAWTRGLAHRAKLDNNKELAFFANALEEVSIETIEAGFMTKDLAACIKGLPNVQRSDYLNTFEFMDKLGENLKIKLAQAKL

Take `CCC1(c2onc(-c3c(Cl)cccc3Cl)c2C(=O)n2ccc3c(/C=C/C(=O)O)cccc32)COC1` [Example 5, (2E)-3-(1-{[3-(2,6-Dichlorophenyl)-5-(3-ethyloxetan-3-yl)-1,2-oxazol-4-yl]carbonyl}-1H-indol-4-yl)prop-2-enoic acid]: the IC50 in assay [1] (setting [3]) was determined as 42 nM. For `O=C(O)/C=C/c1cccc2c1ccn2C(=O)c1c(-c2c(Cl)cc(Cl)cc2Cl)noc1C1(F)COC1` [Example 6, (2E)-3-(1-{[5-(3-Fluorooxetan-3-yl)-3-(2,4,6-trichlorophenyl)-1,2-oxazol-4-yl]carbonyl}-1H-indol-4-yl)prop-2-enoic acid], the results for the IC50 in assay [2] and in assay [1] (setting [3]) were 151 nM and 459 nM, respectively. For `CC(C)(O)c1onc(-c2c(Cl)cccc2Cl)c1C(=O)n1ccc2c(/C=C/C(=O)O)cccc21` [Example 7, (2E)-3-(1-{[3-(2,6-Dichlorophenyl)-5-(2-hydroxypropan-2-yl)-1,2-oxazol-4-yl]carbonyl}-1H-indol-4-yl)prop-2-enoic acid], in that order: 152 nM and 787 nM. As to `CC1(c2onc(-c3c(Cl)cc(Cl)cc3Cl)c2C(=O)n2ccc3c(/C=C/C(=O)O)ccnc32)COC1` [Example 9, (2E)-3-(1-{[5-(3-Methyloxetan-3-yl)-3-(2,4,6-trichlorophenyl)-1,2-oxazol-4-yl]carbonyl}-1H-pyrrolo[2,3-b]pyridin-4-yl]prop-2-enoic acid], the IC50 was 107 nM in assay [2] and 1270 nM in assay [1] (setting [3]). The like results for `COC1(c2onc(-c3c(F)cc(Cl)cc3Cl)c2C(=O)n2cc(C)c3c(/C=C/C(=O)O)cccc32)CCC1` [Example 14, (2E)-3-(1-{[3-(2,4-Dichloro-6-fluorophenyl)-5-(1-methoxycyclobutyl)-1,2-oxazol-4-yl]carbonyl}-3-methyl-1H-indol-4-yl]prop-2-enoic acid] were, in that order, 110 nM and 32 nM. The like results for `COC1(c2onc(-c3c(F)cc(Cl)cc3Cl)c2C(=O)n2cc3c4c(cccc42)/C(=C/C(=O)O)CC3)CCC1` [Example 15, (2E)-[1-{[3-(2,4-Dichloro-6-fluorophenyl)-5-(1-methoxycyclobutyl)-1,2-oxazol-4-yl]carbonyl}-3,4-dihydrobenzo[cd]indol-5(1H)-ylidene]ethanoic acid] were, in that order, 106 nM and 37 nM. `Cc1cn(C(=O)c2c(-c3ccc(Cl)c(F)c3Cl)noc2C(C)(C)F)c2cccc(/C=C/C(=O)O)c12` [Example 17]: the IC50 turned out to be 201 nM in assay [2] and 242 nM in assay [1] (setting [3]). For `CC(C)(F)c1onc(-c2ccc(Cl)c(F)c2Cl)c1C(=O)n1cc2c3c(cccc31)/C(=C/C(=O)O)CC2` [Example 20, (2E)-[1-{[3-(2,4-Dichloro-3-fluorophenyl)-5-(2-fluoropropan-2-yl)-1,2-oxazol-4-yl]carbonyl}-3,4-dihydrobenzo[cd]indol-5(1H)-ylidene]ethanoic acid], in that order: 267 nM and 435 nM. Turning to `CC(C)c1onc(-c2c(Cl)cccc2Cl)c1C(=O)n1ccc2c(/C=C/C(=O)O)cccc21` [Example 23, (2E)-3-(1-{[3-(2,6-Dichlorophenyl)-5-(propan-2-yl)-1,2-oxazol-4-yl]carbonyl}-1H-indol-4-yl)prop-2-enoic acid], the IC50 in assay [2] stood at 75 nM; in assay [1] (setting [3]) it was 709 nM.

In the case of `CC(C)(C)c1onc(-c2c(Cl)cccc2Cl)c1C(=O)n1ccc2c(/C=C/C(=O)O)cccc21` [Example 24, (2E)-3-(1-{[5-(tert-Butyl)-3-(2,6-dichlorophenyl)-1,2-oxazol-4-yl]carbonyl}-1H-indol-4-yl)prop-2-enoic acid], the IC50 in assay [2] was 182 nM; in assay [1] (setting [3]), 255 nM.

`Cc1cn(C(=O)c2c(-c3c(Cl)cccc3Cl)noc2C(C)C)c2cccc(/C=C/C(=O)O)c12` [Example 25, (2E)-3-(1-{[3-(2,6-Dichlorophenyl)-5-(propan-2-yl)-1,2-oxazol-4-yl]carbonyl}-3-methyl-1H-indol-4-yl)prop-2-enoic acid]: the IC50 stood at 326 nM in assay [2] and 248 nM in assay [1] (setting [3]). For `CC(C)c1onc(-c2c(Cl)cc(Cl)cc2Cl)c1C(=O)n1ccc2c(/C=C/C(=O)O)cccc21` [Example 26, (2E)-3-(1-{[5-(Propan-2-yl)-3-(2,4,6-Trichlorophenyl)-1,2-oxazol-4-yl]carbonyl}-1H-indol-4-yl)prop-2-enoic acid], in that order: 253 nM and 248 nM. For `COC(C)(C)c1onc(-c2c(Cl)cccc2Cl)c1C(=O)n1ccc2c(/C=C/C(=O)O)cccc21` [Example 27, (2E)-3-(1-{[3-(2,6-Dichlorophenyl)-5-(2-methoxypropan-2-yl)-1,2-oxazol-4-yl]carbonyl}-1H-indol-4-yl)prop-2-enoic acid], in that order: 160 nM and 128 nM. For `CC(C)c1onc(-c2c(Cl)ccc(F)c2Cl)c1C(=O)n1ccc2c(/C=C/C(=O)O)cccc21` [Example 28, (2E)-3-(1-{[3-(2,6-Dichloro-3-fluorophenyl)-5-(propan-2-yl)-1,2-oxazol-4-yl]carbonyl}-1H-indol-4-yl)prop-2-enoic acid], in that order: 90 nM and 401 nM.

Consider `Cc1cn(C(=O)c2c(-c3c(Cl)ccc(F)c3Cl)noc2C(C)C)c2cccc(/C=C/C(=O)O)c12` [Example 30, (2E)-3-(1-{[3-(2,6-Dichloro-3-fluorophenyl)-5-(propan-2-yl)-1,2-oxazol-4-yl]carbonyl}-3-methyl-1H-indol-4-yl)prop-2-enoic acid], for which the IC50 in assay [2] was determined as 114 nM; in assay [1] (setting [3]), 350 nM.

As to `COC(C)(C)c1onc(-c2c(Cl)cc(Cl)cc2Cl)c1C(=O)n1ccc2c(/C=C/C(=O)O)cccc21` [Example 31, (2E)-3-(1-{[5-(2-Methoxypropan-2-yl)-3-(2,4,6-trichlorophenyl)-1,2-oxazol-4-yl]carbonyl}-1H-indol-4-yl)prop-2-enoic acid], the IC50 worked out at 57 nM in assay [2] and 24 nM in assay [1] (setting [3]). As to `CC(C)(C)c1onc(-c2c(Cl)cc(Cl)cc2Cl)c1C(=O)N1CCc2c(/C=C/C(=O)O)cccc21` [Example 32, (2E)-3-(1-{[5-(tert-Butyl)-3-(2,4,6-trichlorophenyl)-1,2-oxazol-4-yl]carbonyl}-2,3-dihydro-1H-indol-4-yl)prop-2-enoic acid], the IC50 amounted to 176 nM in assay [2] and 413 nM in assay [1] (setting [3]).

Consider `CC(C)(C)c1onc(-c2c(Cl)cccc2Br)c1C(=O)n1ccc2c(/C=C/C(=O)O)cccc21` [Example 39, (2E)-3-(1-{[3-(2-Bromo-6-chlorophenyl)-5-(tert-butyl)-1,2-oxazol-4-yl]carbonyl}-1H-indol-4-yl)prop-2-enoic acid], for which the IC50 worked out at 168 nM in assay [2] and 389 nM in assay [1] (setting [3]). The like results for `Cc1cc(Cl)cc(Cl)c1-c1noc(C(C)(C)C)c1C(=O)n1ccc2c(/C=C/C(=O)O)cccc21` [Example 41, (2E)-3-(1-{[5-(tert-Butyl)-3-(2,4-dichloro-6-methylphenyl)-1,2-oxazol-4-yl]carbonyl}-1H-indol-4-yl)prop-2-enoic acid] were, in that order, 280 nM and 254 nM.

With `CC(C)(F)c1onc(-c2c(Cl)cc(Cl)cc2Cl)c1C(=O)n1cc(F)c2c(/C=C/C(=O)O)cccc21` [Example 45, (2E)-3-(3-Fluoro-1-{[5-(2-fluoropropan-2-yl)-3-(2,4,6-trichlorophenyl)-1,2-oxazol-4-yl]carbonyl}-1H-indol-4-yl)prop-2-enoic acid], the IC50 in assay [2] is 114 nM; in assay [1] (setting [3]), 60 nM. With `COc1cc(Cl)cc(Cl)c1-c1noc(C(C)(C)F)c1C(=O)n1cc(C)c2c(/C=C/C(=O)O)cccc21` [Example 58, (2E)-3-(1-{[3-(2,4-Dichloro-6-methoxyphenyl)-5-(2-fluoropropan-2-yl)-1,2-oxazol-4-yl]carbonyl}-3-methyl-1H-indol-4-yl)prop-2-enoic acid], the IC50 in assay [2] was found to be 178 nM; in assay [1] (setting [3]) it was 295 nM. For the compound `CC(=O)c1cn(C(=O)c2c(-c3c(Cl)cc(Cl)cc3Cl)noc2C(C)(C)F)c2cccc(/C=C/C(=O)O)c12` [Example 64, (2E)-3-(3-Acetyl-1-{[5-(2-fluoropropan-2-yl)-3-(2,4,6-trichlorophenyl)-1,2-oxazol-4-yl]carbonyl}-1H-indol-4-yl)prop-2-enoic acid], the IC50 in assay [2] is 888 nM; in assay [1] (setting [3]), above 2000 nM. With `C=Cc1ccc(-c2onc(-c3c(Cl)cc(Cl)cc3Cl)c2C(=O)n2ccc3c(/C=C/C(=O)O)cccc32)cn1` [Example 73, (2E)-3-(1-{[5-(6-Ethenylpyridin-3-yl)-3-(2,4,6-trichlorophenyl)-1,2-oxazol-4-yl]carbonyl}-1H-indol-4-yl)prop-2-enoic acid], the IC50 in assay [2] is 208 nM; in assay [1] (HT-1080, read-out: Test Example 3 IC50 (nM)) it was 7 nM. With `NC[C@H]1CCN(c2onc(-c3c(Cl)cccc3Cl)c2C(=O)n2ccc3c(/C=C/C(=O)O)cccc32)C1` [Example 139, (2E)-3-[1-({5-[(3R)-3-(Aminomethyl)pyrrolidin-1-yl]-3-(2,6-dichlorophenyl)-1,2-oxazol-4-yl}carbonyl)-1H-indol-4-yl]prop-2-enoic acid], in assay [1] (setting [3]), the IC50 was determined as 339 nM. Take `NC[C@@H]1CCN(c2onc(-c3c(Cl)cccc3Cl)c2C(=O)n2ccc3c(/C=C/C(=O)O)cccc32)C1` [Example 140]: the IC50 in assay [2] is 1040 nM.

What is called IC50 is the concentration needed to halve the response being measured.
